Reference: patent US12258328B2, “6-membered heteroaryl-containing aminopyridine compounds as EGFR inhibitors” (YUHAN CORPORATION, priority 2021, dated 2025)
pIC50: −log10 of the molar value. Read-outs that look alike come from different tables or passages of the source.

Key:
EGFR L858R/T790M/C797S = EGFR L858R/T790M/C797S (Homo sapiens, UniProt P00533, C797S/L858R/T790M); experiment: Biochemical EGFR kinase assay (Lance Ultra TR-FRET), triple mutant L858R/T790M/C797S
Procedure, shortened: (§1)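 In this biochemical assay, phosphorylation after a one-hour room-temperature reaction was detected with europium-labelled anti-phosphopeptide antibody at 2 nM final concentration.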

EGFR L858R/C797S = EGFR L858R/C797S (Homo sapiens, UniProt P00533, C797S/L858R); experiment: Biochemical EGFR kinase assay (Lance Ultra TR-FRET), double mutant L858R/C797S
Sequence of EGFR L858R/C797S (P00533 25-1210 C797S/L858R): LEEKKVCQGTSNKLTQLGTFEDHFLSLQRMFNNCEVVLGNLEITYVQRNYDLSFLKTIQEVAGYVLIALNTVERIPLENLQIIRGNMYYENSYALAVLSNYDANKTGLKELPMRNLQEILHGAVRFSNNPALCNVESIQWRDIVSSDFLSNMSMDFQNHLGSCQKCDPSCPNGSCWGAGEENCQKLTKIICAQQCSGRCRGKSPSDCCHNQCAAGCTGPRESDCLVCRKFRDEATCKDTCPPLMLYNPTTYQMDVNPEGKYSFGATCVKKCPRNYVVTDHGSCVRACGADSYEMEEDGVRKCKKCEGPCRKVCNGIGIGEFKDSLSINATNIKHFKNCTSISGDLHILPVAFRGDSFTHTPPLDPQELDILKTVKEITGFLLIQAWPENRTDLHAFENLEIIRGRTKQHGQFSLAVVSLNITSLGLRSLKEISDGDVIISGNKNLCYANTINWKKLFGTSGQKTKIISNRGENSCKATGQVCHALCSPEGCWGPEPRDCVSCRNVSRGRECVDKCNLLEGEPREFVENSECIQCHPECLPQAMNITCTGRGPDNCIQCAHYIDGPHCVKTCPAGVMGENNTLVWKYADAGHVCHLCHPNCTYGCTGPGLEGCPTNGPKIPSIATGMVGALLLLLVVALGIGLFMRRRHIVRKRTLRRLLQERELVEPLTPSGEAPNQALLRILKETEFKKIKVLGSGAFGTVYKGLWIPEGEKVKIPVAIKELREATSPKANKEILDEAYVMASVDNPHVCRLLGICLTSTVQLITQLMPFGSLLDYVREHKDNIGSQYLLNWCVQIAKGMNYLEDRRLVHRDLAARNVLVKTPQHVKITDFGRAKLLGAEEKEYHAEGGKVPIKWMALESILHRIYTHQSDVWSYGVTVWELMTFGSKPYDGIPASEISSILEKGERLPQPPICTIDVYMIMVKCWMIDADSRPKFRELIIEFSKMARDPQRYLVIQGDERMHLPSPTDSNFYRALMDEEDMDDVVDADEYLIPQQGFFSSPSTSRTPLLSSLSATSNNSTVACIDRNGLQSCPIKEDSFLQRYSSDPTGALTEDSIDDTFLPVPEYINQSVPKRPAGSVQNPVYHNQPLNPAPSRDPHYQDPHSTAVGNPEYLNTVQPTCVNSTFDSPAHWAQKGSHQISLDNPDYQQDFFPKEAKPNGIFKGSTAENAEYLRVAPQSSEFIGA
Procedure, shortened: as §1

EGFR del19/T790M/C797S = EGFR del19/T790M/C797S (Homo sapiens, UniProt P00533, C797S/DEL746-750/T790M); experiment: Biochemical EGFR kinase assay (Lance Ultra TR-FRET), triple mutant del19/T790M/C797S
Sequence of EGFR del19/T790M/C797S (P00533 with tags, fused parts or gaps DEL746-750/T790M/C797S): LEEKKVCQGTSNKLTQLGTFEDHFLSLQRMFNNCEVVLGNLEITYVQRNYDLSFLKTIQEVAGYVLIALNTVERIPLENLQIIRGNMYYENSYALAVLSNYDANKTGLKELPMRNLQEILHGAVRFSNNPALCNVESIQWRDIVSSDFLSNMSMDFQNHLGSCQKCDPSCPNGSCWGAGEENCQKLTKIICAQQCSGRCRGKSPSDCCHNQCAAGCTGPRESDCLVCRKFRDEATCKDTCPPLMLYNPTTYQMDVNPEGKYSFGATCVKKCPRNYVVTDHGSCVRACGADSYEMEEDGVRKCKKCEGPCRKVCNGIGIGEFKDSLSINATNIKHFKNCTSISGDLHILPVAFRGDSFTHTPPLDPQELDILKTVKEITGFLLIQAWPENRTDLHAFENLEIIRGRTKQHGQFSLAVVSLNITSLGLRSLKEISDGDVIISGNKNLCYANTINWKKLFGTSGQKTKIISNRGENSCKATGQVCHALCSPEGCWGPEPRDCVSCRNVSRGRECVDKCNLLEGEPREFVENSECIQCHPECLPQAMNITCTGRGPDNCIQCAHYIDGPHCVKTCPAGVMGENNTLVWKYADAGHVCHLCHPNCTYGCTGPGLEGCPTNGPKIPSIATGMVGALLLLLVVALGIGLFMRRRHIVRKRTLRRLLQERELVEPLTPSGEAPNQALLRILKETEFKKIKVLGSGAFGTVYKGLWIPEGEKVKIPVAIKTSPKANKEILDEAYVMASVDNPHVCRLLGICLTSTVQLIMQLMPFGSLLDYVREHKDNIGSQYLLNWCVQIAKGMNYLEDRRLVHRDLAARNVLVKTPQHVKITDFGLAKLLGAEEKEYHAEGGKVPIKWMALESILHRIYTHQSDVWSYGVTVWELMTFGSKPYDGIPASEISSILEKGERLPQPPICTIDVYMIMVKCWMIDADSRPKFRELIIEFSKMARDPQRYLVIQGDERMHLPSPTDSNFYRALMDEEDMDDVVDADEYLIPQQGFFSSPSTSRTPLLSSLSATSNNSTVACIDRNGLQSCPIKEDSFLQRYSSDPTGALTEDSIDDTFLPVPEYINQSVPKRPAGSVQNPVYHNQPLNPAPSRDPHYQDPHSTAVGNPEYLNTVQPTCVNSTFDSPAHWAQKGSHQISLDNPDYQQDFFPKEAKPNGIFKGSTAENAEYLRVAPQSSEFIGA
Procedure, shortened: as §1

EGFR wildtype = EGFR wildtype (Homo sapiens, UniProt P00533); experiment: Biochemical EGFR kinase assay (Lance Ultra TR-FRET), wildtype
Procedure, shortened: as §1

EGFR del19/C797S = EGFR del19/C797S (Homo sapiens, UniProt P00533, C797S/DEL746-750); experiment: Biochemical EGFR kinase assay (Lance Ultra TR-FRET), double mutant del19/C797S
Sequence of EGFR del19/C797S (P00533 with tags, fused parts or gaps DEL746-750/C797S): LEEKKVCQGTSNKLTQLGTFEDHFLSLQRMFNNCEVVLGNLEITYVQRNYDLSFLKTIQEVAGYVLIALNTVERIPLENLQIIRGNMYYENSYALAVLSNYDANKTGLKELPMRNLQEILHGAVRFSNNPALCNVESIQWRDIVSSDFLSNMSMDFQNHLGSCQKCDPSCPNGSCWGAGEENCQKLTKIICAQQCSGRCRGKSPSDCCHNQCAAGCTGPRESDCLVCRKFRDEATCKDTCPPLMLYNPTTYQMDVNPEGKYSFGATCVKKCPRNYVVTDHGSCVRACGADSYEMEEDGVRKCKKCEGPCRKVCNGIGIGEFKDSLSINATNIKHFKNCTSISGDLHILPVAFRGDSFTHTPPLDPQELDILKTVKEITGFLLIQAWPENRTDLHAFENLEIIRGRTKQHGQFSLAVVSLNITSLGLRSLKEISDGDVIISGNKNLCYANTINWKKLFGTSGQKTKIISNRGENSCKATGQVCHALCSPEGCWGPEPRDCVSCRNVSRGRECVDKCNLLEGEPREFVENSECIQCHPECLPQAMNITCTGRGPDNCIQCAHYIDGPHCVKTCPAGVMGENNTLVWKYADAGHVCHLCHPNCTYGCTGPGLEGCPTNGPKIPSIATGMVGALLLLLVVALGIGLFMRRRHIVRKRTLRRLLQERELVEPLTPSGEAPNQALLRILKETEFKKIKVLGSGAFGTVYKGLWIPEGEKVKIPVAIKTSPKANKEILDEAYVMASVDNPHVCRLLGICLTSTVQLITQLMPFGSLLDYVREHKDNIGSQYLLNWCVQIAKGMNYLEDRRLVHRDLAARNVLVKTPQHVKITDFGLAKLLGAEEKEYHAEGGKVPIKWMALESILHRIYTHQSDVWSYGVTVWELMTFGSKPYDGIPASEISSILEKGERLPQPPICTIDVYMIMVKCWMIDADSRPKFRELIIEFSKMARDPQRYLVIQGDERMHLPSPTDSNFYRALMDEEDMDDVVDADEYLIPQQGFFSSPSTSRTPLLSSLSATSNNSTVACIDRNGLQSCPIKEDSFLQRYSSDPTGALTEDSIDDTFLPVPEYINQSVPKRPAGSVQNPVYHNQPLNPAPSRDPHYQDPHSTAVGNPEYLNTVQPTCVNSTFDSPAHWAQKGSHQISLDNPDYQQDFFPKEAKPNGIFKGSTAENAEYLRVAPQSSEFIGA
Procedure, shortened: as §1

[1] = ATP at Km, read-out: IC50 L858R/T790M/C797S, Km ATP
[2] = ATP at Km, read-out: IC50 del19/T790M/C797S, Km ATP
[3] = ATP at Km, read-out: IC50 WT, Km ATP
[4] = ATP at Km, read-out: IC50 del19/C797S, Km ATP
[5] = IC50 L858R/T790M/C797S, 100 μM ATP
[6] = ATP at Km, read-out: IC50 L858R/C797S, Km ATP
[7] = IC50 del19/T790M/C797S, 100 μM ATP

Sequence of EGFR L858R/T790M/C797S (P00533 25-1210 T790M/C797S/L858R): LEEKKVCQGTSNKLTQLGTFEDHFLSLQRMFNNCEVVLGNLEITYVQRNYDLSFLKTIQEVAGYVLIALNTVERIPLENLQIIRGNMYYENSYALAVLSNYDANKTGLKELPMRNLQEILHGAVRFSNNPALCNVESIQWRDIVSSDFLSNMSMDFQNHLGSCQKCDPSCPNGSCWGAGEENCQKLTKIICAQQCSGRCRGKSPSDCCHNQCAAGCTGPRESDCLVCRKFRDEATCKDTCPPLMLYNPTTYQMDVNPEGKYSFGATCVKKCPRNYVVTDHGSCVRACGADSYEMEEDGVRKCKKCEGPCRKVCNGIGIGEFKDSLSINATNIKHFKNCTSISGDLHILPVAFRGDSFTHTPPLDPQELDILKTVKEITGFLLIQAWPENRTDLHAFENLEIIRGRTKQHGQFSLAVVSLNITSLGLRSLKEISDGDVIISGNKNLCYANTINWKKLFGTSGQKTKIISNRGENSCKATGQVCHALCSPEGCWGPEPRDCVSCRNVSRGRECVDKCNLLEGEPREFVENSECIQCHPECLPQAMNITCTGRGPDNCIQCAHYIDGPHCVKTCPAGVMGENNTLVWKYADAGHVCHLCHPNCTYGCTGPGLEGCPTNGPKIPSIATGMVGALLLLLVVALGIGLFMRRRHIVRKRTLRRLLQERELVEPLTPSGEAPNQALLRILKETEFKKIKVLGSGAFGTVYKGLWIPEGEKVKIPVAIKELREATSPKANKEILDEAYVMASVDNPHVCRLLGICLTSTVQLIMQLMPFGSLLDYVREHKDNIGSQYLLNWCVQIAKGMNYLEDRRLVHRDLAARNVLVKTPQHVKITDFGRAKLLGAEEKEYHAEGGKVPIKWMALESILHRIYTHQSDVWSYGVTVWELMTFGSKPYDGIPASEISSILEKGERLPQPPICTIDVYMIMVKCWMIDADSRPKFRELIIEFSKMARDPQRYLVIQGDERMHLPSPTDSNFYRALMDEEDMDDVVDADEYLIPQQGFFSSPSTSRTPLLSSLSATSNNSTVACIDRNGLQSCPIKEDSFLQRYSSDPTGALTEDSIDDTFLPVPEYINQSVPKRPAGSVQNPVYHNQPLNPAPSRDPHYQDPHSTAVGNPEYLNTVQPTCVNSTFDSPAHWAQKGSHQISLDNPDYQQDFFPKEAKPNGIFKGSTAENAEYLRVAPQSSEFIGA

Structure (SMILES)	pIC50 (EGFR L858R/T790M/C797S; [1])	pIC50 (EGFR L858R/C797S; IC50 L858R/C797S, 100 μM ATP)	pIC50 (EGFR del19/T790M/C797S; [2])	pIC50 (EGFR wildtype; [3])	pIC50 (EGFR wildtype; IC50 WT, 100 μM ATP)	pIC50 (EGFR del19/C797S; [4])	pIC50 (EGFR del19/C797S; IC50 del19/C797S, 100 μM ATP)	pIC50 (EGFR L858R/T790M/C797S; [5])	pIC50 (EGFR L858R/C797S; [6])	pIC50 (EGFR del19/T790M/C797S; [7])
Cc1ccc(-c2cnc(Nc3ccnc(-c4cnn(S(=O)(=O)C5CC5)c4)n3)cc2N[C@H]2CC[C@@](C)(O)CC2)nc1F [Example 179, (1s,4s)-4-((6′-((2-(1-(Cyclopropylsulfonyl)-1H-pyrazol-4-yl)pyrimidin-4-yl)amino)-6-fluoro-5-methyl-[2,3′-bipyridin]-4′-yl)amino)-1-methylcyclohexan-1-ol]	9.40	8.44	9.05	8.39	< 5.00	9.22	8.55			
Cc1ccc(-c2cnc(Nc3ccnc(-c4cnn(S(=O)(=O)C5CC5)c4)n3)cc2N[C@H]2CC[C@@H](C(C)(C)O)CC2)nc1F [Example 180, 2-((1s,4s)-4-((6′-((2-(1-(Cyclopropylsulfonyl)-1H-pyrazol-4-yl)pyrimidin-4-yl)amino)-6-fluoro-5-methyl-[2,3′-bipyridin]-4′-yl)amino)cyclohexyl)propan-2-ol]	8.60	7.17	8.24	7.32	< 5.00	8.22	7.51	8.04	7.92	8.07
C[C@]1(O)CC[C@@H](Nc2cc(Nc3ccnc(-c4cnn(S(=O)(=O)C5CC5)c4)n3)ncc2-c2ccc(C(F)(F)F)c(F)n2)CC1 [Example 181, (1s,4s)-4-((6′-((2-(1-(Cyclopropylsulfonyl)-1H-pyrazol-4-yl)pyrimidin-4-yl)amino)-6-fluoro-5-(trifluoromethyl)-[2,3′-bipyridin]-4′-yl)amino)-1-methylcyclohexan-1-ol]	8.66	6.80	8.26	6.89	< 5.00	7.79	7.38	7.69	7.71	8.00
CC(C)(O)[C@H]1CC[C@@H](Nc2cc(Nc3ccnc(-c4cnn(S(=O)(=O)C5CC5)c4)n3)ncc2-c2ccc(S(=O)(=O)N3CCOCC3)cn2)CC1 [Example 184, 2-((1s,4s)-4-((6′-((2-(1-(Cyclopropylsulfonyl)-1H-pyrazol-4-yl)pyrimidin-4-yl)amino)-5-(morpholinosulfonyl)-[2,3′-bipyridin]-4′-yl)amino)cyclohexyl)propan-2-ol]		7.89	8.04	7.82	< 5.00	8.57	7.91	9.10	8.66	8.55
C[C@]1(O)CC[C@@H](Nc2cc(Nc3ccnc(-c4cnn(S(=O)(=O)C5CC5)c4)n3)ncc2-c2cnc(F)cn2)CC1 [Example 185, (1s,4s)-4-((2-((2-(1-(Cyclopropylsulfonyl)-1H-pyrazol-4-yl)pyrimidin-4-yl)amino)-5-(5-fluoropyrazin-2-yl)pyridin-4-yl)amino)-1-methylcyclohexan-1-ol]		7.49	8.70	6.95	< 5.00	8.17	7.69	8.72	8.52	8.08
CC(C)(O)[C@H]1CC[C@@H](Nc2cc(Nc3ccnc(-c4cnn(S(=O)(=O)C5CC5)c4)n3)ncc2-c2cnc(F)cn2)CC1 [Example 186, 2-((1s,4s)-4-((2-((2-(1-(Cyclopropylsulfonyl)-1H-pyrazol-4-yl)pyrimidin-4-yl)amino)-5-(5-fluoropyrazin-2-yl)pyridin-4-yl)amino)cyclohexyl)propan-2-ol]		6.78	8.42	6.13	< 5.00	7.94	7.25	8.32	8.24	7.54
CC1CCN(S(=O)(=O)c2ccc(-c3cnc(Nc4ccnc(-c5cnn(S(=O)(=O)C6CC6)c5)n4)cc3N[C@H]3CC[C@@H](C(C)(C)O)CC3)nc2)CC1 [Example 187, 2-((1s,4s)-4-((6′-((2-(1-(Cyclopropylsulfonyl)-1H-pyrazol-4-yl)pyrimidin-4-yl)amino)-5-((4-methylpiperidin-1-yl)sulfonyl)-[2,3′-bipyridin]-4′-yl)amino)cyclohexyl)propan-2-ol]		5.71			< 5.00		6.75	7.01		6.62
CN1CCN(S(=O)(=O)c2ccc(-c3cnc(Nc4ccnc(-c5cnn(S(=O)(=O)C6CC6)c5)n4)cc3N[C@H]3CC[C@@](C)(O)CC3)nc2)CC1 [Example 188, (1s,4s)-4-((6′-((2-(1-(Cyclopropylsulfonyl)-1H-pyrazol-4-yl)pyrimidin-4-yl)amino)-5-((4-methylpiperazin-1-yl)sulfonyl)-[2,3′-bipyridin]-4′-yl)amino)-1-methylcyclohexan-1-ol]		7.95		8.02	< 5.00	8.64	8.74	9.00	9.10	8.96
CN1CCN(S(=O)(=O)c2ccc(-c3cnc(Nc4ccnc(-c5cnn(S(=O)(=O)C6CC6)c5)n4)cc3N[C@H]3CC[C@@H](CO)CC3)nc2)CC1 [Example 189, ((1s,4s)-4-((6′-((2-(1-(Cyclopropylsulfonyl)-1H-pyrazol-4-yl)pyrimidin-4-yl)amino)-5-((4-methylpiperazin-1-yl)sulfonyl)-[2,3′-bipyridin]-4′-yl)amino)cyclohexyl)methanol]		8.10		8.16	5.75	8.66	8.77	9.10	9.05	8.85
C[C@]1(O)CC[C@@H](Nc2nccc(-c3cnc(Nc4ccnc(-c5cnn(S(=O)(=O)C6CC6)c5)n4)cc3N[C@H]3CC[C@@](C)(O)CC3)n2)CC1 [Example 191, (1s,4s)-4-((4-(6-((2-(1-(Cyclopropylsulfonyl)-1H-pyrazol-4-yl)pyrimidin-4-yl)amino)-4-(((1s,4s)-4-hydroxy-4-methylcyclohexyl)amino)pyridin-3-yl)pyrimidin-2-yl)amino)-1-methylcyclohexan-1-ol]	9.52	7.58	9.00	7.56	< 5.00	8.64	8.19		8.80	8.77
O=S(=O)(C1CC1)n1cc(-c2nccc(Nc3cc(N[C@H]4CC[C@@H](CO)CC4)c(-c4ccnc(N[C@H]5CC[C@@H](CO)CC5)n4)cn3)n2)cn1 [Example 192, ((1s,4s)-4-((4-(6-((2-(1-(Cyclopropylsulfonyl)-1H-pyrazol-4-yl)pyrimidin-4-yl)amino)-4-(((1s,4s)-4-(hydroxymethyl)cyclohexyl)amino)pyridin-3-yl)pyrimidin-2-yl)amino)cyclohexyl)methanol]		8.11			5.19		8.70	9.30		9.22
CC(C)(O)[C@H]1CC[C@@H](Nc2nccc(-c3cnc(Nc4ccnc(-c5cnn(S(=O)(=O)C6CC6)c5)n4)cc3N[C@H]3CC[C@@H](C(C)(C)O)CC3)n2)CC1 [Example 193, 2-((1s,4s)-4-((4-(6-((2-(1-(Cyclopropylsulfonyl)-1H-pyrazol-4-yl)pyrimidin-4-yl)amino)-4-(((1s,4s)-4-(2-hydroxypropan-2-yl)cyclohexyl)amino)pyridin-3-yl)pyrimidin-2-yl)amino)cyclohexyl)propan-2-ol]		6.73			< 5.00		7.63	8.42		8.52
C[C@]1(O)CC[C@@H](Nc2cc(Nc3ccnc(-c4cnn(S(=O)(=O)C5CC5)c4)n3)ncc2-c2ccc(OC(F)(F)F)cn2)CC1 [Example 194, (1s,4s)-4-((6′-((2-(1-(Cyclopropylsulfonyl)-1H-pyrazol-4-yl)pyrimidin-4-yl)amino)-5-(trifluoromethoxy)-[2,3′-bipyridin]-4′-yl)amino)-1-methylcyclohexan-1-ol]	9.22	7.36	8.60	7.44	< 5.00	8.26	7.77	8.66	8.41	8.47
O=S(=O)(C1CC1)n1cc(-c2nccc(Nc3cc(N[C@H]4CC[C@@H](CO)CC4)c(-c4ccc(OC(F)(F)F)cn4)cn3)n2)cn1 [Example 195, ((1s,4s)-4-((6′-((2-(1-(Cyclopropylsulfonyl)-1H-pyrazol-4-yl)pyrimidin-4-yl)amino)-5-(trifluoromethoxy)-[2,3′-bipyridin]-4′-yl)amino)cyclohexyl)methanol]	9.00	7.43	8.48	7.60	< 5.00	8.18	7.79	8.60	8.44	8.44
